Entries after “also recorded” stand apart in the source; their conditions may differ. Residues, ends and D or L forms follow the SMILES beside them. *: point of attachment. Myristoyl = CCCCCCCCCCCCCC(=O)*
Key:
[1] = system: MDA-MB-231 breast cancer cells; experiment: Flow cytometry of stimulated MDA-MB-231 cells (PD-L1, CD44, CD24); assay type: cell-based, human
Method: MCF7 and MDA-MB-231 cells were obtained from the American Type Culture Collection (Manassas, Va.). Cells were cultured in DMEM (Invitrogen, Life Technologies, Carlsbad, Calif.) supplemented with 10% FBS, 2 mM L-glutamine, and 1% penicillin-streptomycin-neomycin. MCF7 cells were stimulated with 1.32 ng/ml phorbol 12-myristate 13-acetate (PMA) (Sigma-Aldrich, St Louis, Mo.) or 5 ng/ml recombinant TGF-β1 (R&D Systems, Minneapolis, Minn.) for 60 h. For the co-culture assay MDA-MB-231 cells were stimulated with Jurkat T-cells at defined ratios.
Isolated PBMCs and CTCs were stained with CD45−APC, pan-cytokeratin (CK)-FITC, EpCAM-Percp-Cy5.5 and PD-L1-BV421 antibodies. Co-cultured MDA-MB-231 cells were stained with CD44, CD24 and PD-L1. Flow cytometric analysis was performed on single cell suspensions for using the BD LSR II Flow Cytometer.

[2] = system: MDA-MB-231 breast cancer cells; experiment: as above; assay type: cell-based, human; details: IFNγ 10 μg/mL, PMA 24 ng/mL, 24 or 48 hours
[3] = target: T1, LSD1 phosphorylated at serine 111 (LSD1s111p) (Homo sapiens, UniProt O60341); experiment: Confocal microscopy of LSD1s111p in MCF7 cells treated with peptide inhibitors; assay type: cell-based; details: stimulated and non-stimulated MCF7 cells, relative to control, FIG. 4
T1 construct: endogenous in cells; host or cells: MCF7 (non-stimulated or PMA-stimulated) and MDA-MB-231 breast cancer cells
Method: (§1) Cells were probed with either rabbit antibodies to LSD1s111p (Merck ABE1462), EGFR (AB2430), MET (ab51067), PD-L1 (sc-50298), goat antibodies to PD-L1 (sc-19091), SC-14033), (sc-19096), mouse antibodies to Cytokeratin (Miltenyi 130-090-866), CSV (Abnova H00007431-M08), vimentin (SC-6260) followed by visualisation with secondary anti mouse Alexa-Fluor 568 (A10037), secondary anti rabbit Alexa-Fluor 488 (A21206) or secondary anti goat Alexa-Fluor 633 (A21082).
(§2) MDA-MB-231 or MCF7 cells were treated with one of L1, L2 or L3 and a control. Cells were then fixed with 3.7% formaldehyde and permeabilized with 2% Triton-X-100, then probed with a primary mouse antibody against LSD1 or a primary rabbit antibody against PD-L1, EGFR or MET, followed by visualization with a secondary goat antibody to mouse or rabbit immunoglobulins conjugated to Alexa-Fluor 488. Confocal laser scanning microscopy was used to measure the Fn/c (ratio of nuclear to cytoplasmic fluorescent intensity) ratio of LSD1 with Fiji-imageJ or the total nuclear fluorescence of PD-L1, EGFR or MET. Values are plotted with significant differences indicated using the Mann-Whitney T-test, with at least 20 cells counted per sample. Representative images for each treatment are shown.

[4] = target: T1, LSD1 phosphorylated at serine 111 (LSD1s111p); experiment: Confocal microscopy of LSD1s111p in MDA-MB-231 cells treated with peptide inhibitors; assay type: cell-based; details: relative to control, FIG. 4
Method: as §1, §2

[5] = system: PD-L1; experiment: Confocal microscopy of PD-L1 in MCF7 cells treated with peptide inhibitors; assay type: cell-based, human; details: for abrogation of nuclear PD-L1 expression: epithelial non-stimulated MCF7 cells, compared with stimulated cells; for Fn/c ratio (nuclear bias) of PD-L1: peptide treated MCF7 cells; for cytoplasmic/surface expression of PD-L1 (TCFI): stimulated MCF7 cells; for cytoplasmic/surface expression of PD-L1 (TCFI) / expression of nuclear PD-L1 (TNFI): FIG. 5; for expression of nuclear PD-L1 (TNFI): stimulated, mesenchymal MCF7 cells
Method: as §1, §2

[6] = system: PD-L1; experiment: Confocal microscopy of PD-L1 in MDA-MB-231 cells treated with peptide inhibitors; assay type: cell-based, human; details: for cytoplasmic/surface expression of PD-L1 (TCFI) / expression of nuclear PD-L1 (TNFI) / PD-L1 nuclear expression: MDA-MB-231 cells; for cytoplasmic/surface expression of PD-L1 (TCFI) / expression of nuclear PD-L1 (TNFI): FIG. 6; for PD-L1 nuclear expression: in comparison to the control, FIG. 22 (50 μM and 100 μM); for Fn/c ratio (nuclear bias) of PD-L1: peptide treated MDA-MB-231 cells
Method: as §1, §2

[7] = target: T2, LSD1 (Homo sapiens, UniProt O60341); experiment: LSD1 nuclear translocation in MDA-MB-231 cells, confocal microscopy; assay type: cell-based; details: FIG. 19 and FIG. 31
T2 construct: endogenous in cells; host or cells: MCF7 (non-stimulated or PMA-stimulated) and MDA-MB-231 breast cancer cells
Method: as §2
Confocal laser scanning microscopy was performed on MDA-MB-231 cells treated with a LSD1 peptide inhibitor, L1, L2 or L3, or vehicle alone. Cells were fixed with 3.7% formaldehyde and permeabilized with 2% Triton-X-100, and then probed with a primary mouse antibody to LSD1, followed by the corresponding secondary antibody conjugated to Alexa-Fluor 488. Confocal laser scanning microscopy was used to determine the Fn/c ratio of LSD1 with image-J. Values are plotted with significant differences indicated. Data shown represent the mean±SE for at least 20 individual cells.

[8] = system: EGFR; experiment: Confocal microscopy of EGFR in MDA-MB-231 cells treated with peptide inhibitors; assay type: cell-based, human; details: in comparison to control, FIG. 23
Method: as §2

[9] = system: MET; experiment: Confocal microscopy of MET in MDA-MB-231 cells treated with peptide inhibitors; assay type: cell-based, human; details: in comparison to control, FIG. 24
Method: as §2

[10] = system: MCF7 cells; details: PMA stimulated MCF7 cells, 50 μM and 100 μM tested, FIG. 20
Method: (§3) 5×10^4 MCF7 or MDA-MB-231 cells were seeded with 1 mL of complete DMEM in 12 well plates overnight. […] Samples were harvested by trypsinisation followed by washing with DPBS containing 2% HI-FBS. FACS staining were performed using anti-human CD44-APC, anti-human CD24-PE, Hoechst, and anti-human EpCAM antibody cocktails. Data was collected from a BD FACSLSR-II flow cytometer. Treestar FlowJo was used for data analysis.

[11] = system: MDA-MB-231 cells; details: 100 μM, FIG. 21
Method: as §3

[12] = stimulated MDA-MB-231, 24 hours
[13] = stimulated MDA-MB-231, 48 hours

Row | Structure (SMILES) | nuclear expression of LSD1s111p (TNFI) [3] | nuclear expression of LSD1s111p (TNFI) [4] | abrogation of nuclear PD-L1 expression [5] | Fn/c ratio (nuclear bias) of PD-L1 [5] | cytoplasmic/surface expression of PD-L1 (TCFI) [5] | expression of nuclear PD-L1 (TNFI) [5] | cytoplasmic/surface expression of PD-L1 (TCFI) [6] | expression of nuclear PD-L1 (TNFI) [6] | PD-L1 nuclear expression [6] | Fn/c ratio (nuclear bias) of PD-L1 [6] | nuclear translocation of LSD1 (Fn/c) [7] | EGFR nuclear expression (TNFI) [8] | MET nuclear expression (TNFI) [9] | cancer stem cell formation [10] | cancer stem cell formation [11] | also measured
1 | CCCCCCCCCCCCCC(=O)O[C@@H]1[C@@H](C)[C@@]2(O)[C@@H](C=C(CO)C[C@]3(O)C(=O)C(C)=C[C@@H]23)[C@@H]2C(C)(C)[C@]12OC(C)=O [PMA, phorbol 12-myristate 13-acetate, reference compound] |  |  |  |  |  |  |  |  |  |  |  |  |  |  |  | Median Fluorescence Intensity (MFI) of PD-L1, change on stimulation ([1]; MDA-MB-231 cells): decreased; CD44^hi CD24^lo (Frequency of parent, %) [1, 12]: 98.4%; CD44^hi CD24^lo, PD-L1+ (Frequency of parent, %) [1, 12]: 98.6%; Mean Fluorescence Intensity of Comp Pacific Blue-A PD-L1, CD44^hi CD24^lo, PD-L1+ subset [1, 12]: 3145; Mean Fluorescence Intensity of Comp Pacific Blue-A PD-L1, PD-L1+ subset [1, 12]: 3126; PD-L1+ (Frequency of parent, %) [1, 12]: 98.5%; CD44^hi CD24^lo (Frequency of parent, %) [1, 13]: 98.3%; CD44^hi CD24^lo, PD-L1+ (Frequency of parent, %) [1, 13]: 99.2%; Mean Fluorescence Intensity of Comp Pacific Blue-A PD-L1, CD44^hi CD24^lo, PD-L1+ subset [1, 13]: 4016; Mean Fluorescence Intensity of Comp Pacific Blue-A PD-L1, PD-L1+ subset [1, 13]: 3983; PD-L1+ (Frequency of parent, %) [1, 13]: 99.1%; frequency (%) of PD-L1+ cells, change on stimulation [2]: not altered
2 | CCCCCCCCCCCCCC(=O)N[C@@H](CCCNC(=N)N)C(=O)N[C@@H](CCCNC(=N)N)C(=O)N[C@H](C(=O)N[C@@H](CO)C(=O)N[C@@H](CCCNC(=N)N)C(=O)N[C@@H](CCCNC(=N)N)C(=O)N[C@@H](CCCCN)C(=O)N[C@@H](CCCNC(=N)N)C(=O)N[C@@H](C)C(=O)N[C@@H](CCCCN)C(=O)N[C@H](C(=O)O)C(C)C)[C@@H](C)O [Peptide L1, Myristoyl-RRTSRRKRAKV-OH] (Myristoyl-RRTSRRKRAKV-OH) | significantly abrogated | significantly abrogated | lessened | strongly nuclear | significantly inhibited | significantly abrogated | significantly inhibited | significantly abrogated | abrogated | strongly nuclear | inhibited; also recorded: clearly abrogated | significant abrogation | significant abrogation | inhibited | significant reduction | 
3 | CCCCCCCCCCCCCC(=O)N[C@@H](CCCNC(=N)N)C(=O)N[C@@H](CCCNC(=N)N)C(=O)N[C@H](C(=O)N[C@@H](C)C(=O)N[C@@H](CCCNC(=N)N)C(=O)N[C@@H](CCCNC(=N)N)C(=O)N[C@@H](CCCCN)C(=O)N[C@@H](CCCNC(=N)N)C(=O)N[C@@H](C)C(=O)N[C@@H](CCCCN)C(=O)N[C@H](C(=O)O)C(C)C)[C@@H](C)O [Peptide L2, Myristoyl-RRTARRKRAKV-OH] (Myristoyl-RRTARRKRAKV-OH) | significantly abrogated | significantly abrogated | lessened | strongly nuclear | significantly inhibited | significantly abrogated | significantly inhibited | significantly abrogated | abrogated | strongly nuclear | inhibited; also recorded: clearly abrogated | reduction | significant abrogation | inhibited | significant reduction | 

— patent US20220040280A1, “INHIBITORS AND USES THEREOF” (UNIVERSITY OF CANBERRA, priority 2016, published 2022)
